Experimental data from PubChem BioAssay (NCI).
Values joined by “and” are separate entries in the source; they are usually repeats but may differ in a detail not shown here. Equal entries are not always repeated.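 Growth conditions: 96-well plates. Treatment: test compound, 48 hours, 5 concentrations. Analysis: linear interpolation between bracketing concentrations; unreached endpoints set to highest concentration. GI50 marks 50% less growth. TGI is the concentration that stops growth completely.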

What was measured:
Assay in all cases: inhibition of tumour cell growth, NCI panel, 48 h
A549 NSCLC = test system: A549 NSCLC
NCI-H23 lung = test system: NCI-H23 lung
HOP-62 NSCLC = test system: HOP-62 NSCLC
SK-OV-3 ovarian = test system: SK-OV-3 ovarian
SNB-19 CNS = test system: SNB-19 CNS
SF-295 CNS = test system: SF-295 CNS
RPMI-8226 leukemia = test system: RPMI-8226 leukemia
OVCAR-3 ovarian = test system: OVCAR-3 ovarian
A498 renal = test system: A498 renal
NCI-H226 lung = test system: NCI-H226 lung

SMILES | TGI (A549 NSCLC) [µM] | TGI (NCI-H23 lung) [µM] | TGI (HOP-62 NSCLC) [µM] | TGI (SK-OV-3 ovarian) | TGI (SNB-19 CNS) | TGI (SF-295 CNS) [µM] | TGI (RPMI-8226 leukemia) | TGI (OVCAR-3 ovarian) | TGI (A498 renal) | GI50 (NCI-H23 lung) [µM] | GI50 (HOP-62 NSCLC) [µM] | GI50 (SK-OV-3 ovarian) | GI50 (SNB-19 CNS) | GI50 (SF-295 CNS) [µM] | GI50 (RPMI-8226 leukemia) [µM] | GI50 (A498 renal) [µM] | GI50 (OVCAR-3 ovarian) [µM] | GI50 (A549 NSCLC) | TGI (NCI-H226 lung) [µM] | GI50 (NCI-H226 lung) [µM]
COC(=O)/C=C/c1cc2c(cc1-c1c(C(=O)O)cc(OC)c(OC)c1OC)OCO2 | > 10 | > 10 | > 10 | > 10 µM | > 10 µM | > 10 | > 10 µM | > 10 µM | – | – | – | – | – | – | – | – | – | – | – | –
NC(N)=NS(=O)(=O)c1ccc(Nc2c3ccccc3nc3c(C(=O)Nc4ccc(S(N)(=O)=O)cc4)cccc23)cc1 | > 100 | > 100 | > 100 | > 100 µM | > 100 µM | > 100 | > 100 µM | > 100 µM | > 100 µM | – | – | – | – | – | – | – | – | – | – | –
CCN1CCN(CC(=O)N2c3cccc4cccc(c34)N(C(=O)CN3CCN(CC)CC3)C2c2cn(-c3ccccc3)nc2-c2cccc([N+](=O)[O-])c2)CC1 | – | 3.59 | 3.28 | 3.74 µM | 3.42 µM | 3.44 | 3.94 µM | 3.24 µM | 2.11 µM | 1.81 | 1.63 | 1.9 µM | 1.66 µM | 1.84 | 1.59 | 0.49 | 1.63 | – | – | –
Oc1ccc2oc3ncc(Br)c(-c4ccccc4)c3c2c1 | > 100 | > 100 | > 100 | > 100 µM | – | > 100 | > 100 µM | > 100 µM | – | > 100 | > 100 | > 100 µM | – | > 100 | > 100 | – | > 100 | > 100 µM | – | –
CC(=O)OCC1OC(n2c(-c3ccc(C)cc3)cc(-c3ccccc3)c(C#N)c2=O)C(OC(C)=O)C(OC(C)=O)C1OC(C)=O (stereo unspecified) | > 100 | > 100 | > 100 | > 100 µM | > 100 µM | – | > 100 µM | > 100 µM | – | – | – | – | – | – | – | – | – | – | > 100 | –
S=P(N1CC1)(N1CC1)N1CC1 | – | – | – | 47.2 µM and 406 µM and 296 µM | > 78.4 µM and 719 µM and 787 µM | – | 92.3 µM and 792 µM and 706 µM | 48.8 µM and 381 µM and 470 µM | 39.8 µM and 280 µM | – | – | 16 µM and 143 µM | 18.5 µM and 180 µM | 6.78 | 28 | 24.5 | – | 10.2 µM and 84 µM | – | –
C=CCC1C(=O)CC2(C)CC(=O)C(CC=C)C12C (stereo unspecified) | > 100 | > 100 | > 100 | > 100 µM | > 100 µM | > 100 | > 100 µM | > 100 µM | – | – | – | – | – | – | – | – | – | – | > 100 | –
NC(N)=NS(=O)(=O)c1ccc(NCCc2c3ccccc3nc3ccccc23)cc1 | > 100 | – | > 100 | > 100 µM | > 100 µM | > 100 | > 100 µM | > 100 µM | – | – | – | – | – | – | – | – | – | – | > 100 | –
COc1cc2c(cc1OC)/C(=C\c1ccccc1N)C(=O)OC2 | 60.1 | 42.7 | 45.4 | 55.7 µM | 32.5 µM | 29.3 | 10.3 µM | 35.7 µM | – | – | – | – | – | – | – | – | – | – | – | –
CC(C)=CC1=C2C3=C(C(=O)C4(O)Oc5c(C)c6c7c(c5OC24C)[C@@H](C)CC[C@@H]7[C@@H](C)C[C@H]6C=C(C)C)C(C)CCC3C(C)C1 (stereo partly specified) | > 100 | > 100 | > 100 | > 100 µM | > 100 µM | > 100 | > 100 µM | > 100 µM | – | > 100 | > 100 | > 100 µM | > 100 µM | > 100 | > 100 | – | > 100 | > 100 µM | > 100 | > 100
Cc1cc2c(C)nn(Cc3ccc(Cl)cc3)c2c(C#N)c1C | > 100 | > 100 | > 100 | > 100 µM | > 100 µM | > 100 | > 100 µM | > 100 µM | – | – | – | – | – | – | – | – | – | – | > 100 | –
CCOC(=O)c1c2c(n3ccccc13)C(=O)c1ncccc1C2=O | 8.01 | 5.75 | 8.86 | 22.9 µM | 13.7 µM | 11.3 | 19.5 µM | 0.945 µM | – | 0.0617 | 0.0777 | 0.0683 µM | 0.0587 µM | 1.31 | 0.423 | – | 0.03 | 0.323 µM | 3.5 | 0.0544
COc1ccc(C2ON(c3cccc(C)n3)CC=C2C)cc1 (stereo unspecified) | > 100 | > 100 | > 100 | > 100 µM | > 100 µM | > 100 | > 100 µM | > 100 µM | – | – | – | – | – | – | – | – | – | – | > 100 | –
COc1ccccc1NC(=O)CC(=O)N/N=C/c1ccc(N(CCC#N)S(=O)(=O)c2ccccc2)cc1 | > 100 | > 100 | > 100 | – | > 100 µM | > 100 | > 100 µM | > 100 µM | – | – | – | – | – | – | – | – | – | – | > 100 | –
CCCSS[C@H]1NC(=O)[C@H]1NC(=O)COc1ccccc1 | 67.3 | 31.9 | > 100 | > 100 µM | > 100 µM | > 100 | 88.1 µM | 31.5 µM | 70.3 µM | – | – | – | – | – | – | – | – | – | – | –
O=C(O)CCc1nn2c(nc1=O)sc1ccc3ccccc3c12 | > 100 | > 100 | > 100 | > 100 µM | > 100 µM | > 100 | > 100 µM | > 100 µM | – | – | – | – | – | – | – | – | – | – | > 100 | –
